SMILES strings stand for the structures.

Common to all, as to type: in vivo
For data set [1], the system named is wheat. As to the kind of experiment: Test Example 5: effect on crop by foliage application, plastic box (symbol e). Particulars: 320 g/ha, 3 weeks after application. The essentials:
(§1)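 A greenhouse held between 25° C. and 30° C. was used to grow plants sown spot-wise, beneath ~1.5 cm of soil, in boxes of sterilized diluvial soil.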

Data set [2] deals with Setaria viridis. As to the kind of experiment: Test Example 5: herbicidal effect by foliage application, plastic box (symbol G). Particulars: 320 g/ha, 3 weeks after application. The essentials: (§2)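 Post-emergence spray; diluvial soil (sterilized), ~1.5 cm seed cover; greenhouse 25–30° C; 14-day-old plants; water-diluted emulsion at predetermined dose; visual score at 3 wk post-treatment.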

In data set [3] the test system is beet. As to the kind of experiment: Test Example 5: effect on crop by foliage application, plastic box (symbol f). Particulars: 320 g/ha, 3 weeks after application. Summed up: as §1
The test system of data set [4] is wheat. Briefly: Test Example 4: effect on crop by soil treatment (symbol e). Particulars: for e: wheat, effect grade on crop: 320 g/ha. Summed up: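 Plants are raised in a greenhouse (25° C. to 30° C.) from spot-sown seed, which sits under about 1.5 cm of sterilized diluvial soil in a box shared with weed species.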
For data set [5], the system named is corn. Briefly: Test Example 5: effect on crop by foliage application, plastic box (symbol c). Conditions: 320 g/ha, 3 weeks after application. The essentials: as §1
Data set [6] deals with Chenopodium album. Briefly: Test Example 5: herbicidal effect by foliage application, plastic box (symbol O). Particulars: 320 g/ha, 3 weeks after application. Summed up: as §2
Data set [7] relates to Amaranthus retroflexus. As to the kind of experiment: Test Example 4: herbicidal effect by soil treatment (symbol N). The essentials:
(§3)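 Seeds were sown in sterilized diluvial soil, covered with about 1.5 cm of soil, and the soil surface was sprayed with a water-diluted emulsion of the compound at a predetermined rate. Plants grew in a greenhouse at 25° C. to 30° C.; effects were scored visually 3 weeks after application.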

The test system of data set [8] is Alopecurus myosuroides. As to the kind of experiment: Test Example 5: herbicidal effect by foliage application, plastic box (symbol J). Conditions: 320 g/ha, 3 weeks after application. The essentials: as §2
The test system of data set [9] is Echinochloa oryzacola Vasing. Briefly: Test Example 2: herbicidal activity, application during weed generation in submerged conditions (symbol A). Conditions: Table 23; application herbicide amount 320 g/ha; grade 0-5 by criteria of Test Example 1. Summed up: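 Each pot contained alluvial soil under 4 cm of water with seeds of all three weeds sown together. Following growth at 25° C. to 30° C. to the one- to two-leaf stage, the floodwater received diluted emulsion at a predetermined amount; visual assessment followed at 3 weeks.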

Data set [10] concerns Leptochloa chinensis. Briefly: Test Example 3: herbicidal effect by foliage application, Wagner pot (symbol D). Conditions: application herbicide amount 320 g/ha. The essentials: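 Seeds sown in alluvial soil kept under 0.1–0.5 cm water, greenhouse 25–30 °C; 14 d growth. Leaves treated by small sprayer with water-diluted emulsion at a predetermined rate. Effect graded by set scale, 3 weeks.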

Data set [11] has as its system Setaria viridis. As to the kind of experiment: Test Example 4: herbicidal effect by soil treatment (symbol G). Summed up:
as §3

Data set [12] has as its system rice plant. Briefly: Test Example 5: effect on crop by foliage application, plastic box (symbol b). Particulars: 320 g/ha, 3 weeks after application. The essentials:
as §1

Where [13] appears, read: application herbicide amount 320 g/ha.

On to `CON=C(C)CC1CC(O)=C(c2c(C)cc(Br)cc2C)C1=O` (stereo not drawn) [6-003], for which the “e: wheat, effect on crop grade” value in [1] and in [4] (setting [13]) was 0 (Herbicidal ratio of 5% or lower (almost no effect)) throughout. Further, the “G: Setaria viridis, herbicidal effect grade” value in [2] and in data set [11] (setting [13]) was 5 (Herbicidal ratio of 90% or more (almost completely withered)) in each case. Further, the “f: beet, effect on crop grade” value in data set [3] was 0 (Herbicidal ratio of 5% or lower (almost no effect)). Moreover, the “c: corn, effect on crop grade” value in [5] is reported as 5 (Herbicidal ratio of 90% or more (almost completely withered)). Further, the “O: Chenopodium album, herbicidal effect grade” value in data set [6] is 1 (Herbicidal ratio of 5% or higher and lower than 20%). The “N: Amaranthus retroflexus, herbicidal effect grade” value (from here on “N: Amaranthus retroflexus”) in data set [7] (setting [13]) is 3 (Herbicidal ratio of 40% or higher and lower than 70%). Besides, in data set [8], the “J: Alopecurus myosuroides, herbicidal effect grade” value was 5 (Herbicidal ratio of 90% or more (almost completely withered)). Besides, in data set [9], the “Herbicidal effect grade, A: Echinochloa oryzacola Vasing.” value is 4 (Herbicidal ratio of 70% or higher and lower than 90%). The “herbicidal effect on D (Leptochloa chinensis), grade 0-5” value (“herbicidal effect on D” below) in [10] was 5 (Herbicidal ratio of 90% or more (almost completely withered)). In addition, the “b: directly sowed rice plant, effect on crop grade” value in [12] is listed as 5 (Herbicidal ratio of 90% or more (almost completely withered)).

`CON=C(C)CC1CC(OCC(=O)OC)=C(c2c(C)cc(C)cc2C)C1=O` (stereo not drawn) [1-012]: in data set [1], the “e: wheat, effect on crop grade” value was 0 (Herbicidal ratio of 5% or lower (almost no effect)). The “G: Setaria viridis, herbicidal effect grade” value in data set [2] is listed as 0 (Herbicidal ratio of 5% or lower (almost no effect)). Also, the “f: beet, effect on crop grade” value in data set [3] is reported as 0 (Herbicidal ratio of 5% or lower (almost no effect)). Besides, the “e (wheat) effect on crop grade” value in data set [4] (setting [13]) is 0 (Herbicidal ratio of 5% or lower (almost no effect)). The “c: corn, effect on crop grade” value in data set [5] is on record as 0 (Herbicidal ratio of 5% or lower (almost no effect)). Moreover, the “O: Chenopodium album, herbicidal effect grade” value in data set [6] is given as 0 (Herbicidal ratio of 5% or lower (almost no effect)). In addition, in data set [7] (setting [13]), the “N (Amaranthus retroflexus) herbicidal effect grade” value was 0 (Herbicidal ratio of 5% or lower (almost no effect)). In addition, the “J: Alopecurus myosuroides, herbicidal effect grade” value in data set [8] is 0 (Herbicidal ratio of 5% or lower (almost no effect)). Also, in [9], the “Herbicidal effect grade, A: Echinochloa oryzacola Vasing.” value is listed as 0 (Herbicidal ratio of 5% or lower (almost no effect)). Moreover, in [10], the “herbicidal effect on D” value is 0 (Herbicidal ratio of 5% or lower (almost no effect)). Moreover, the “G (Setaria viridis) herbicidal effect grade” value in data set [11] (setting [13]) was 0 (Herbicidal ratio of 5% or lower (almost no effect)). For the same molecule, in [12], the “b: directly sowed rice plant, effect on crop grade” value is 0 (Herbicidal ratio of 5% or lower (almost no effect)).

`CON=C(C)CC1CC(O)=C(c2c(C)cc(C)cc2OC)C1=O` (stereo not drawn) [6-037, 3-hydroxy-2-(2-methoxy-4,6-dimethylphenyl)-5-{2-(methoxyimino)propyl}cyclopent-2-enone]: the “e: wheat, effect on crop grade” value in data set [1] and in data set [4] (setting [13]) was 5 (Herbicidal ratio of 90% or more (almost completely withered)) throughout. The “G: Setaria viridis, herbicidal effect grade” value in data set [2] and in data set [11] (setting [13]) was 5 (Herbicidal ratio of 90% or more (almost completely withered)) throughout. Besides, in [3], the “f: beet, effect on crop grade” value was 3 (Herbicidal ratio of 40% or higher and lower than 70%). For the same molecule, the “c: corn, effect on crop grade” value in data set [5] is recorded as 5 (Herbicidal ratio of 90% or more (almost completely withered)). For the same molecule, in data set [6], the “O: Chenopodium album, herbicidal effect grade” value is 3 (Herbicidal ratio of 40% or higher and lower than 70%). Further, the “N: Amaranthus retroflexus” value in data set [7] (setting [13]) was 3 (Herbicidal ratio of 40% or higher and lower than 70%). Further, in data set [8], the “J: Alopecurus myosuroides, herbicidal effect grade” value was 5 (Herbicidal ratio of 90% or more (almost completely withered)). For the same molecule, the “Herbicidal effect grade, A: Echinochloa oryzacola Vasing.” value in data set [9] is listed as 5 (Herbicidal ratio of 90% or more (almost completely withered)). Besides, the “herbicidal effect on D” value in [10] is on record as 5 (Herbicidal ratio of 90% or more (almost completely withered)). Further, the “b: directly sowed rice plant, effect on crop grade” value in [12] was 5 (Herbicidal ratio of 90% or more (almost completely withered)).

On to `CON=C(C)CC1CC(OS(=O)(=O)C2CC2)=C(c2c(C)cc(C)cc2C)C1=O` (stereo not drawn) [1-143], for which the “e: wheat, effect on crop (criteria 0-5)” value in data set [1] was 3 (Herbicidal ratio of 40% or higher and lower than 70%). Besides, the “G: Setaria viridis, herbicidal effect (criteria 0-5)” value in data set [2] is 5 (Herbicidal ratio of 90% or more (almost completely withered)). The “f: beet, effect on crop (criteria 0-5)” value in [3] was 0 (Herbicidal ratio of 5% or lower (almost no effect)). The “e: wheat, effect grade on crop” value in data set [4] is 2 (Herbicidal ratio of 20% or higher and lower than 40%). Moreover, the “c: corn, effect on crop (criteria 0-5)” value in data set [5] is 3 (Herbicidal ratio of 40% or higher and lower than 70%). Besides, in [6], the “O: Chenopodium album, herbicidal effect (criteria 0-5)” value is recorded as 0 (Herbicidal ratio of 5% or lower (almost no effect)). Moreover, in data set [7] (320 g/ha), the “N: Amaranthus retroflexus” value is listed as 0 (Herbicidal ratio of 5% or lower (almost no effect)). Moreover, in data set [8], the “J: Alopecurus myosuroides, herbicidal effect (criteria 0-5)” value is 5 (Herbicidal ratio of 90% or more (almost completely withered)). For the same molecule, the “Herbicidal effect grade, A: Echinochloa oryzacola Vasing.” value in data set [9] is 4 (Herbicidal ratio of 70% or higher and lower than 90%). Also, the “herbicidal effect on D” value in data set [10] was 4 (Herbicidal ratio of 70% or higher and lower than 90%). For the same molecule, the “G: Setaria viridis, herbicidal effect grade” value in data set [11] (320 g/ha) was 1 (Herbicidal ratio of 5% or higher and lower than 20%). Further, the “b: directly sowed rice plant, effect on crop (criteria 0-5)” value in data set [12] was 2 (Herbicidal ratio of 20% or higher and lower than 40%).

With `CCc1cc(C)cc(C)c1C1=C(O)CC(CC(C)=NOC)C1=O` (stereo not drawn) [6-007], the “e: wheat, effect on crop grade” value in data set [1] and in data set [4] (setting [13]) was 5 (Herbicidal ratio of 90% or more (almost completely withered)) throughout. Moreover, the “G: Setaria viridis, herbicidal effect grade” value in [2] and in [11] (setting [13]) was 5 (Herbicidal ratio of 90% or more (almost completely withered)) throughout. The “f: beet, effect on crop grade” value in [3] is on record as 0 (Herbicidal ratio of 5% or lower (almost no effect)). The “c: corn, effect on crop grade” value in data set [5] is reported as 5 (Herbicidal ratio of 90% or more (almost completely withered)). For the same molecule, the “O: Chenopodium album, herbicidal effect grade” value in data set [6] was 0 (Herbicidal ratio of 5% or lower (almost no effect)). Also, the “N: Amaranthus retroflexus” value in [7] (setting [13]) is 3 (Herbicidal ratio of 40% or higher and lower than 70%). Also, the “J: Alopecurus myosuroides, herbicidal effect grade” value in data set [8] is listed as 5 (Herbicidal ratio of 90% or more (almost completely withered)). Further, in data set [9], the “Herbicidal effect grade, A: Echinochloa oryzacola Vasing.” value is on record as 5 (Herbicidal ratio of 90% or more (almost completely withered)). In addition, the “herbicidal effect on D” value in data set [10] is reported as 5 (Herbicidal ratio of 90% or more (almost completely withered)). For the same molecule, the “b: directly sowed rice plant, effect on crop grade” value in data set [12] is given as 5 (Herbicidal ratio of 90% or more (almost completely withered)).

With `CON=C(C)CC1CC(OC(=O)N2CCN(C)CC2)=C(c2c(C)cc(C)cc2C)C1=O` (stereo not drawn) [1-152], the “e: wheat, effect on crop (criteria 0-5)” value in data set [1] is 3 (Herbicidal ratio of 40% or higher and lower than 70%). Further, in [2], the “G: Setaria viridis, herbicidal effect (criteria 0-5)” value is given as 5 (Herbicidal ratio of 90% or more (almost completely withered)). The “f: beet, effect on crop (criteria 0-5)” value in data set [3] is 0 (Herbicidal ratio of 5% or lower (almost no effect)). In addition, the “e: wheat, effect grade on crop” value in data set [4] is on record as 0 (Herbicidal ratio of 5% or lower (almost no effect)). The “c: corn, effect on crop (criteria 0-5)” value in data set [5] was 2 (Herbicidal ratio of 20% or higher and lower than 40%). Further, the “O: Chenopodium album, herbicidal effect (criteria 0-5)” value in [6] is 0 (Herbicidal ratio of 5% or lower (almost no effect)). The “N: Amaranthus retroflexus” value in data set [7] (320 g/ha) is 0 (Herbicidal ratio of 5% or lower (almost no effect)). Besides, the “J: Alopecurus myosuroides, herbicidal effect (criteria 0-5)” value in [8] is on record as 5 (Herbicidal ratio of 90% or more (almost completely withered)). The “Herbicidal effect grade, A: Echinochloa oryzacola Vasing.” value in [9] was 2 (Herbicidal ratio of 20% or higher and lower than 40%). Further, in data set [10], the “herbicidal effect on D” value was 5 (Herbicidal ratio of 90% or more (almost completely withered)). Moreover, the “G: Setaria viridis, herbicidal effect grade” value in [11] (320 g/ha) was 0 (Herbicidal ratio of 5% or lower (almost no effect)). The “b: directly sowed rice plant, effect on crop (criteria 0-5)” value in data set [12] is reported as 5 (Herbicidal ratio of 90% or more (almost completely withered)).

For the origin of these results see US11000033B2, “Ketone or oxime compound, and herbicide” (NISSAN CHEMICAL CORPORATION, priority 2014, dated 2021).
